# Reference: patent US20240051937A1, “ISOINDOLINONE AMIDE COMPOUNDS USEFUL TO TREAT DISEASES ASSOCIATED WITH GSPT1” (Monte Rosa Therapeutics, Inc., priority 2021, published 2024)
# Like-named read-outs stand apart in the source and are kept apart here.
# How the values were obtained:
# [1] = molecular target: T1, Full length wild-type cereblon CRBN (Homo sapiens, UniProt Q96SW2); test: Fluorescence polarization (FP) assay indicating cereblon binding
# T1 construct: Full length wild-type cereblon CRBN (80.0 nM, 10 μL) was incubated in assay buffer
# Excerpt: Protocol for Fluorescent Polarization Assay
# Compound activity was monitored in a fluorescence polarization (FP) homogeneous assay using 1-[5-({2-[2-(2-{[2-(2,6-dioxopiperidin-3-yl)-1,3-dioxo-2,3-dihydro-1H-isoindol-4-yl]oxy}acetamido)ethoxy]ethyl}carbamoyl)pentyl]-3,3-dimethyl-2-[(1E,3E)-5-[(2E)-1,3,3-trimethyl-5-sulfo-2,3-dihydro-1H-indol-2-ylidene]penta-1,3-dien-1-yl]-3H-indol-1-ium-5-sulfonate as a fluorescent probe. Unless otherwise stated, all reagents were purchased from Sigma Aldrich. Enzymatic reactions were conducted in Perkin-Elmer Black 384 well ProxiPlate Plus (catalogue no. 6008269) in 10 μL total volume. Full length wild-type cereblon CRBN (80.0 nM, 10 μL) was incubated in assay buffer containing 20 mM HEPES (pH 8.0), […], 0.5 mM TCEP and 0.05% Tween 20 in the presence or absence of compound (300 nL). Inhibitors were stored as 10 mM DMSO stocks in an inert environment (low humidity, dark, low oxygen, room temperature) using the Storage Pod System. Compounds and DMSO were dispensed using the Echo E5XX (Labcyte Inc. USA) to give concentrations from 300 to 0.937 or 3000 to 9.3 nM in a 12 data point curve. […] Following incubation at room temperature for 30 min, the assay was initiated by dispensing the probe to a final concentration of 5 nM (2.5 nL of a 20 μM stock) using the Echo E5XX. FP was measured after a period of 12 hours using a Pherastar plate reader (BMG Labtech, Germany) exciting at 590 nm and measuring the amount of parallel and perpendicular light at 675 nm. The FP signal was subsequently normalized to the no-compound control (i.e., DMSO). Analysis and IC50 values were derived using Dotmatics (Dotmatics UK) software.
# GSPT1 = GSPT1 (Homo sapiens, UniProt P15170+Q96SW2); test: Immunofluorescence assay for GSPT1 degradation in CAL-Si cells; format: cell-based; set-up: CAL-Si cells were purchased from DSMZ (cat. Number ACC302); host or cells: CAL-Si (CAL-51) cells; conditions: 6 hours treatment, read-out: Code: activity for GSPT1 degradation (DC50)
# Protocol: The representative compounds were tested in an immunofluorescence assay for their activity to bind to degrade GSPT1. CAL-Si cells were purchased from DSMZ (cat. Number ACC302), sub-cultured in 90% Dulbecco's MEM (4.5 g/L glucose, Gibco 11965)+10% […] inactivated FBS (BioConcept, 2-01F136I) and incubated at 37° C., 5% CO2. For the assay, imaging microtiterplate Cell Carrier 96 Ultra (Perkin Elmer 6055302) were pre-coated with Fibronectin (Sigma F085, 30 μl at 0.2 μg/ml) in PBS (100 μl, Gibco 14190) for 45 min at room temperature, rinsed with PBS and CAL-Si cells (30K cells/well) were plated and let to adhere overnight. Cells were treated with compounds typically using a serial dilution ranging from 30 μM to 0.1 nM for 6 hours. Compounds were stored at 10 mM DMSO stocks. Vehicle (DMSO), positive (CC-885, 10 μM) and rescue controls (positive control plus 0.2 μM bortezomib) were also included at this stage. Cells were subsequently rinsed with PBS and fixed in 10% Formalin solution (50 μl, Sigma HT5011)) for 20 mins at room temperature. Following three consecutive PBS washes (100 μl), cells were permeabilized in 0.1% Triton X-100 in PBS (Sigma 93443, 50 μl) for 15 mins at room temperature. Following three further PBS washes, […] blocking buffer (1% BSA, Sigma A4503, in PBS) was added for 45 min for signal-to-noise reduction.
# Primary antibody (human GSPT1, Sigma HPA052488) was diluted in blocking buffer (dil.1/300, 35 μl/well) and incubated with the cells overnight at 4° C. After three PBS washes, Alexa-fluor 488 coupled secondary antibodies (Invitrogen, A32731, dil.1/1000), Alexa-fluor 647-Phalloidin (Invitrogen, A22287, dil.1/200) and DAPI (Thermo, #62248, dil.1/1000) were diluted in blocking buffer and incubated with the samples for 2 hours at room temperature. After three final PBS washes, samples were conserved in […] PBS in the dark, until measurement. Image acquisition was performed on the Operetta High-Content Imager (Perkin-Elmer). Fluorescence intensity of Alexa-Fluor 488 (GSPT1), Alexa-Fluor 647 (Actin) and DAPI (Nucleus) were measured. For the determination of GSPT1 DC50 values, a custom algorithm implemented in the PerkinElmer image analysis software Harmony-Acapella® was developed. After user-defined setting of adjustment parameters, the analysis was run identically without human intervention for all image fields. DAPI staining of the nuclei was used to determine the location of cells using standard nuclei detection modules. Segmentation artifacts were removed by threshold-based filters for area, roundness and intensity. The outline of the cells was determined analogously from the sum of the normalized, smoothed DAPI and Actin channel, starting from each nucleus.
# The Alexa-Fluor 488 (GSPT1) signal intensity in each cell was finally measured, in order to obtain a Mean intensity per cell. GSPT1 degradation (DC50) was calculated after normalization to controls and data import in CDD vault Database, using non-linear regression.
# [2] = cereblon binding, CRBN 80.0 nM, probe 5 nM, FP read after 12 hours, read-out: rFP IC50
# [3] = fluorescence polarization assay, read-out: IC50 value (cereblon binding)
# Chain of GSPT1 (P15170 whole entry): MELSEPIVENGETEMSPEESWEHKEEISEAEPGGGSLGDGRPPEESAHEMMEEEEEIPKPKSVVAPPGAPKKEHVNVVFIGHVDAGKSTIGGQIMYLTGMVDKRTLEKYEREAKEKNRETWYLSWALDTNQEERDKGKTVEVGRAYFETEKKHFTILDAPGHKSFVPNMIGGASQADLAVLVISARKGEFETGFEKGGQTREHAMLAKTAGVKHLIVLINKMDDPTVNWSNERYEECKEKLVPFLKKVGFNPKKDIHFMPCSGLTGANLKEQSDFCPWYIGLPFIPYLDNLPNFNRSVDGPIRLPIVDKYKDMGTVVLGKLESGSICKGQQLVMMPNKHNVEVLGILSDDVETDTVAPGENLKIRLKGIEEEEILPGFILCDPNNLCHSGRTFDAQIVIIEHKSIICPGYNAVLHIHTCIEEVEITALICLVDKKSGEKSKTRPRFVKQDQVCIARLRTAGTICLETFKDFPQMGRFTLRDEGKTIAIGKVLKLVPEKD
# Chain of GSPT1 (Q96SW2 whole entry): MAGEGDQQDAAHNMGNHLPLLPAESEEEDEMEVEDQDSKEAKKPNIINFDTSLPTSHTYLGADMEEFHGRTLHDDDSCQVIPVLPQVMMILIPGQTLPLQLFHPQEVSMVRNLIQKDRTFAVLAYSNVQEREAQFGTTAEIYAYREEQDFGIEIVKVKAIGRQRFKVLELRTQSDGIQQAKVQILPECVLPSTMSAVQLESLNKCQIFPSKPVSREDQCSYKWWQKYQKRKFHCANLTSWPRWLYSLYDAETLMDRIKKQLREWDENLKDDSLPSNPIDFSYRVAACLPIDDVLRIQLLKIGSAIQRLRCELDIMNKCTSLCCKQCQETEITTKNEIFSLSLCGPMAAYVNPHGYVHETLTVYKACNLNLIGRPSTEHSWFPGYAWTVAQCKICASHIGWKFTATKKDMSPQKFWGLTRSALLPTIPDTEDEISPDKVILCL
# Chain of GSPT1 (Q16531 whole entry partner): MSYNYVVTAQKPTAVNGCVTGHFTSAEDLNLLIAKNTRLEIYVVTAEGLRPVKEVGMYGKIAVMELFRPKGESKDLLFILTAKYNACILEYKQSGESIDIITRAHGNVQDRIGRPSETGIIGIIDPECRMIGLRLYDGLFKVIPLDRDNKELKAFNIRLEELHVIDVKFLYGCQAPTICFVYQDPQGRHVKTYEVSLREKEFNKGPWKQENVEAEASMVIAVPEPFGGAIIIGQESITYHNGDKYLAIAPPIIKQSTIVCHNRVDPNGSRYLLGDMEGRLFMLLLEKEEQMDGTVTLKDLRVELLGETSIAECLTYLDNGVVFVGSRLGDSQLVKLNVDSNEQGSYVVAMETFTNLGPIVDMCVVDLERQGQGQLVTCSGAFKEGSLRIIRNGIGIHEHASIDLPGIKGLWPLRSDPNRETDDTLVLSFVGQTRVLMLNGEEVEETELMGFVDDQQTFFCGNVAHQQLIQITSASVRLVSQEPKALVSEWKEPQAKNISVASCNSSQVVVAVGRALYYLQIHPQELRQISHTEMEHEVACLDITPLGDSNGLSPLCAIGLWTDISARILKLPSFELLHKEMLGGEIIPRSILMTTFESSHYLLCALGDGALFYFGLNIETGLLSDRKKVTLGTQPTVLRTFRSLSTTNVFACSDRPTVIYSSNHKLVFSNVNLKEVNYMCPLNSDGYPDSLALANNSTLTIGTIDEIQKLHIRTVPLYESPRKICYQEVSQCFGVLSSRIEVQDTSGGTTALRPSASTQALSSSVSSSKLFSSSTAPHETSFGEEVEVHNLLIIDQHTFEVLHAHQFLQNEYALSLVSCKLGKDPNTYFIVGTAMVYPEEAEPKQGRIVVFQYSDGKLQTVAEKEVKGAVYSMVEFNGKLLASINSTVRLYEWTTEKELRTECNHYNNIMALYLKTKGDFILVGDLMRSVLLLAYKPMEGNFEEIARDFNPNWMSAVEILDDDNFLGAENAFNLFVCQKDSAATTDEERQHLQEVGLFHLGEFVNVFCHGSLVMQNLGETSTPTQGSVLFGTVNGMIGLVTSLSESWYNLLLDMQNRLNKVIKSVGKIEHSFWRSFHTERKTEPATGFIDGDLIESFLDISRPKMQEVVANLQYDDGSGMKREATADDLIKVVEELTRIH
# T1 sequence (Q96SW2 whole entry): as the sequence (Q96SW2 whole entry) above
SMILES,"IC50 [1, 2]",DC50 (GSPT1),"IC50 [1, 3]"
O=C1CCC(N2Cc3ccc(CCC(=O)Nc4ccc(F)c(OC(F)(F)F)c4)cc3C2=O)C(=O)N1 (centres unmarked) [Compound 60],> 1700 nM,30 to 300 nM,
Cc1c(Cl)cc(NC(=O)CCc2ccc3c(c2)C(=O)N(C2CCC(=O)NC2=O)C3)cc1OCC1CCN(C)C1 (centres unmarked) [Compound 61],≤ 500 nM,> 300 nM,< 1100 nM
CC(F)(F)c1ccc(NC(=O)CCc2ccc3c(c2)C(=O)N(C2CCC(=O)NC2=O)C3)cc1 (centres unmarked) [Compound 63],≤ 500 nM,30 to 300 nM,< 1100 nM
Cc1ncc(NC(=O)CCc2ccc3c(c2)C(=O)N(C2CCC(=O)NC2=O)C3)cc1OC(F)(F)F (centres unmarked) [Compound 64],1100 to 1700 nM,30 to 300 nM,
CCc1cc(NC(=O)CCc2ccc3c(c2)C(=O)N(C2CCC(=O)NC2=O)C3)sn1 (centres unmarked) [Compound 65],> 1700 nM,30 to 300 nM,
O=C1CCC(N2Cc3ccc(CCC(=O)Nc4cc(CN5CCOCC5)cc(OC(F)F)c4)cc3C2=O)C(=O)N1 (centres unmarked) [Compound 66],> 1700 nM,30 to 300 nM,
"Cc1c(Cl)cc(NC(=O)CNc2ccc3c(c2)C(=O)N(C2CCC(=O)NC2=O)C3)cc1CN1CCOCC1 (centres unmarked) [Compound 67, N-(3-chloro-4-methyl-5-(morpholinomethyl)phenyl)-2-((2-(2,6-dioxopiperidin-3-yl)-3-oxoisoindolin-5-yl)amino)acetamide]",≤ 500 nM,> 300 nM,
"Cc1c(Cl)cc(NC(=O)COc2ccc3c(c2)C(=O)N(C2CCC(=O)NC2=O)C3)cc1CN1CCOCC1 (centres unmarked) [Compound 68, N-(3-chloro-4-methyl-5-(morpholinomethyl)phenyl)-2-((2-(2,6-dioxopiperidin-3-yl)-3-oxoisoindolin-5-yl)oxy)acetamide]",≤ 500 nM,> 300 nM,
"Cc1ccc(NC(=O)COc2ccc3c(c2)C(=O)N(C2CCC(=O)NC2=O)C3)cc1Cl (centres unmarked) [Compound 69, N-(3-chloro-4-methylphenyl)-2-((2-(2,6-dioxopiperidin-3-yl)-3-oxoisoindolin-5-yl)oxy)acetamide]",500 to 1100 nM,> 300 nM,
